The target of one experiment is T1, Aurora kinase A (Homo sapiens, UniProt O14965).
T1 sequence (O14965 whole entry): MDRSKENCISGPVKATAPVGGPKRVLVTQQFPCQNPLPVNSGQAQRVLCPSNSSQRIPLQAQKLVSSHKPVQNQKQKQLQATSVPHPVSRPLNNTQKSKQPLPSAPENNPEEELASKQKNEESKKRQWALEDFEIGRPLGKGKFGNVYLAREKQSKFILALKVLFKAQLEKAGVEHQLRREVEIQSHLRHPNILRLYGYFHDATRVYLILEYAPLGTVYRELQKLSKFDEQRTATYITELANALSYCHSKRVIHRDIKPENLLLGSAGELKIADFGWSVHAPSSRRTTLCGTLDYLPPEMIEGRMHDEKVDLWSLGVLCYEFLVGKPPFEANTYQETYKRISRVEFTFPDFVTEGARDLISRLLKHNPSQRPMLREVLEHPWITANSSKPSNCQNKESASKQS
Description: Inhibition of recombinant Aurora A.

The next experiment has as its target Aurora kinase B (Homo sapiens, UniProt Q96GD4). Description: Inhibition of recombinant Aurora B.
Experiment [1] deals with Cyclin-dependent kinase 4/cyclin D1 (Homo sapiens, UniProt P11802). The experiment can be described thus: Inhibition of recombinant CDK4/CycD1. It counts as protein-complex assay.
In experiment [2] the target is Mitogen-activated protein kinase kinase kinase 8 (Homo sapiens, UniProt P41279). Description: Inhibition of recombinant COT.
Experiment [3] addresses Insulin-like growth factor 1 receptor (Homo sapiens, UniProt P08069). The experiment can be described thus: Inhibition of recombinant IGF1R.
Experiment [4] addresses Proto-oncogene tyrosine-protein kinase Src (Homo sapiens, UniProt P12931). The experiment can be described thus: Inhibition of recombinant SRC.
In experiment [5] the target is Vascular endothelial growth factor receptor 2 (Homo sapiens, UniProt P35968). Description: Inhibition of recombinant VEGFR2.
Experiment [6] addresses Vascular endothelial growth factor receptor 3 (Homo sapiens, UniProt P35916). Description: Inhibition of recombinant VEGFR3.
For experiment [7], the target named is T2, Receptor-type tyrosine-protein kinase FLT3 (Homo sapiens, UniProt P36888).
T2 sequence (P36888 whole entry): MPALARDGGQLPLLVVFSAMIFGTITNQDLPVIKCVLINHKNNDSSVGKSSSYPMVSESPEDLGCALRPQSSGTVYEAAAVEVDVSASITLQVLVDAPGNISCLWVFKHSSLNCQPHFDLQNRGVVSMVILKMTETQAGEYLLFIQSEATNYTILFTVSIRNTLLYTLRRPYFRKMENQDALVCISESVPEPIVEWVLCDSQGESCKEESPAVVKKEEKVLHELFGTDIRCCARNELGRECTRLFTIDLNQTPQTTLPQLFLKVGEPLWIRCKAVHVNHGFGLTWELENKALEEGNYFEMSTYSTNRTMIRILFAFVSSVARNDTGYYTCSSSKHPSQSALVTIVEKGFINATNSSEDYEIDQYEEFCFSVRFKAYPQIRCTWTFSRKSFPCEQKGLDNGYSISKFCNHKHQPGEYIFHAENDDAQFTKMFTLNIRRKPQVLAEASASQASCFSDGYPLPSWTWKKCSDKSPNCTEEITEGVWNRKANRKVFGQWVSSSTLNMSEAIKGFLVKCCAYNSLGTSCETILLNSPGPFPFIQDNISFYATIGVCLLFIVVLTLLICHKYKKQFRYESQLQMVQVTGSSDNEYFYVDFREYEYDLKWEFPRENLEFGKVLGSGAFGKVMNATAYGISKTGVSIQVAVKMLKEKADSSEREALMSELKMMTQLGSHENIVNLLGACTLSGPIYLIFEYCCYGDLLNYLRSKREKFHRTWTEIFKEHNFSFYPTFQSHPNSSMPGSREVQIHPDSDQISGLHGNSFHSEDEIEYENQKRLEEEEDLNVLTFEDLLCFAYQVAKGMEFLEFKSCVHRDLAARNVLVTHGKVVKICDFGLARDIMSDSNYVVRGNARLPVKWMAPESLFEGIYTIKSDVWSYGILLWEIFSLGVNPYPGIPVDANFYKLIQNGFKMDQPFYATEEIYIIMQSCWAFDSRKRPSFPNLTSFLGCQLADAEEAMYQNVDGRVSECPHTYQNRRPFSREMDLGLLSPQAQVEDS
Description: Inhibition of recombinant FLT3.

Another experiment concerns the target Insulin receptor (Homo sapiens, UniProt P06213). The experiment can be described thus: Inhibition of recombinant INSR.
Experiment [8] concerns the target Hepatocyte growth factor receptor (Homo sapiens, UniProt P08581). Description: Inhibition of recombinant MET.
Experiment [9] deals with T3, Serine/threonine-protein kinase PLK4 (Homo sapiens, UniProt O00444).
T3 sequence (O00444 whole entry): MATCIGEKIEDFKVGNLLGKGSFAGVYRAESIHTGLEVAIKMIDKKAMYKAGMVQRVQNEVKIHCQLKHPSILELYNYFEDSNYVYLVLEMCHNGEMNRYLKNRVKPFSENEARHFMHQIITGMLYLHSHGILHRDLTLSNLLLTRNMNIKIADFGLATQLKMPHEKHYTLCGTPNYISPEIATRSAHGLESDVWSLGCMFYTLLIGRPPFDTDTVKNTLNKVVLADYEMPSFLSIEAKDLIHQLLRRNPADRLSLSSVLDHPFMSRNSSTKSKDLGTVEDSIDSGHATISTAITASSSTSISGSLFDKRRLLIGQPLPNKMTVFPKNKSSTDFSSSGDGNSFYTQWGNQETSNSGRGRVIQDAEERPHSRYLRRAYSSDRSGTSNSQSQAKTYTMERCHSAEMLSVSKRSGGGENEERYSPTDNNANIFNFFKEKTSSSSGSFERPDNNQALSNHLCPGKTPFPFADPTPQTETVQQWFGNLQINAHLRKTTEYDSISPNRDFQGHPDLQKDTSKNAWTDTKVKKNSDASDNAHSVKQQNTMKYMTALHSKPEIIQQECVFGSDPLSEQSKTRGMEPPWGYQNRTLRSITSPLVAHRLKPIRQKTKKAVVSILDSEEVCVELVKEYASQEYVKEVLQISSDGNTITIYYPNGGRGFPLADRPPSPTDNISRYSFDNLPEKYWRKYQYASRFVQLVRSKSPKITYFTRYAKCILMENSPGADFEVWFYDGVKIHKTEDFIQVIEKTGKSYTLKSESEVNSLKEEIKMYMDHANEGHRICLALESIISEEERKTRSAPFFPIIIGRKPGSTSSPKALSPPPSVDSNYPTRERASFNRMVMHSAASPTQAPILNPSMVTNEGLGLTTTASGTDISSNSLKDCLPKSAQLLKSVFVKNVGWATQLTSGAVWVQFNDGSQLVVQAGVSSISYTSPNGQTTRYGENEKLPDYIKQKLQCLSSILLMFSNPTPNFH
The experiment can be described thus: Inhibition of recombinant SAK.

For experiment [10], the system named is L5178Y. Description: Cytotoxicity against mouse L5178Y cells at 10 ug/mL by MTT assay. It counts as functional. On the technique in general: Formazan colour is commonly taken as a measure of viable cells.
The target in a further experiment is Angiopoietin-1 receptor (Homo sapiens, UniProt Q02763). Description: Inhibition of recombinant TIE2.
Experiment [11] has as its system L5178Y. Description: cells. The note with it: Mus musculus.
Description: Cytotoxicity against mouse L5178Y cells by MTT assay
The target of experiment [12] is RAC-alpha serine/threonine-protein kinase (Homo sapiens, UniProt P31749). Description: Inhibition of recombinant AKT1.
The target in experiment [13] is NUAK family SNF1-like kinase 1 (Homo sapiens, UniProt O60285). Description: Inhibition of recombinant ARK5.
For experiment [14], the target named is Serine/threonine-protein kinase B-raf (Homo sapiens, UniProt P15056, V600E). The experiment can be described thus: Inhibition of recombinant B-RAF-V600E mutant.
The target of experiment [15] is Cyclin-dependent kinase 2 (Homo sapiens, UniProt P24941). Description: Inhibition of recombinant CDK2/CycA.
Another experiment concerns the target Ephrin type-B receptor 4 (Homo sapiens, UniProt P54760). Description: Inhibition of recombinant EPHB4.
Experiment [16] addresses Receptor tyrosine-protein kinase erbB-2 (Homo sapiens, UniProt P04626). Description: Inhibition of recombinant ERBB2.
The target of another experiment is Focal adhesion kinase 1 (Homo sapiens, UniProt Q05397). Description: Inhibition of recombinant FAK.
Experiment [17] concerns the target Serine/threonine-protein kinase PLK1 (Homo sapiens, UniProt P53350). The experiment can be described thus: Inhibition of recombinant PLK1.
Experiment [18] addresses Casein kinase II subunit alpha (Homo sapiens, UniProt P68400). Description: Inhibition of recombinant CK2alpha1.

By IC50 is commonly meant the midpoint of a concentration-inhibition curve. As a reminder, the EC50 is the concentration at which the effect is half-maximal.

Values after ≈ are worked out from the molar mass of the structure shown. Where only a bound is given, the exact number is not on record here.

Vascular endothelial growth factor receptor 2, sequence (P35968 whole entry): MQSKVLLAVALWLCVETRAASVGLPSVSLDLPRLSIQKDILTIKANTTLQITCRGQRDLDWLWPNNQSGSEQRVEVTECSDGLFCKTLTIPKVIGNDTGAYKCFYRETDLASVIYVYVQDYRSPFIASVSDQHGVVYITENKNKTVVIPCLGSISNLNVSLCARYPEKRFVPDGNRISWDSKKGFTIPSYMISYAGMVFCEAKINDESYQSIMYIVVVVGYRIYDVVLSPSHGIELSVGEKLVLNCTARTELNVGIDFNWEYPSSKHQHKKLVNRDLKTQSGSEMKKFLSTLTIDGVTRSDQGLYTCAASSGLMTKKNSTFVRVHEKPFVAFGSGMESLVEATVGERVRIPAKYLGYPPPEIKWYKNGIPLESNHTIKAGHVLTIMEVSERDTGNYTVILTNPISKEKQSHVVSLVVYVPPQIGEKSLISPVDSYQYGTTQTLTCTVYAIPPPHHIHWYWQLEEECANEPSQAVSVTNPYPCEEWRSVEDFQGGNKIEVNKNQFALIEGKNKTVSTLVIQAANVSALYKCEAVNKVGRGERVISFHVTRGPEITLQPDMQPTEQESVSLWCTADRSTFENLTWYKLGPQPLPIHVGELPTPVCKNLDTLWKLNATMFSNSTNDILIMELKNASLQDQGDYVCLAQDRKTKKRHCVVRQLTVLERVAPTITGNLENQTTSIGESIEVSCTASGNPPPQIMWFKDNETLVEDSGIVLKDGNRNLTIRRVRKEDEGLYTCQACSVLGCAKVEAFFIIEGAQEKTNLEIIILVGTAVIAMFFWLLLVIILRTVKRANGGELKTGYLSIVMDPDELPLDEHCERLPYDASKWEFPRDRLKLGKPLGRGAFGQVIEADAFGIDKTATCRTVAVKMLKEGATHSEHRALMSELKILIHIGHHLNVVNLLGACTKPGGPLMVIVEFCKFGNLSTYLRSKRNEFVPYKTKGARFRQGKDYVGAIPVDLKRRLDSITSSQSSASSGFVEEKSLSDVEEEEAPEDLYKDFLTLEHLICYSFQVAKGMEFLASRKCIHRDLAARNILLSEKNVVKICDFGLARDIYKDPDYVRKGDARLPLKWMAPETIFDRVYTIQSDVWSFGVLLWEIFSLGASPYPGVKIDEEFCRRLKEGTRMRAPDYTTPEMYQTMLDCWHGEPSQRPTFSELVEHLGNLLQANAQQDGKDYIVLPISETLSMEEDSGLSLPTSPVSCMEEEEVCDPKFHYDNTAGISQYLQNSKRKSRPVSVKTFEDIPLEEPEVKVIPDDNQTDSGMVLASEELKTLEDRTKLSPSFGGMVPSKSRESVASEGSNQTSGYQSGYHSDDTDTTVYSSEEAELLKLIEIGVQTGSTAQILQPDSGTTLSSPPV
Mitogen-activated protein kinase kinase kinase 8, sequence (P41279 whole entry): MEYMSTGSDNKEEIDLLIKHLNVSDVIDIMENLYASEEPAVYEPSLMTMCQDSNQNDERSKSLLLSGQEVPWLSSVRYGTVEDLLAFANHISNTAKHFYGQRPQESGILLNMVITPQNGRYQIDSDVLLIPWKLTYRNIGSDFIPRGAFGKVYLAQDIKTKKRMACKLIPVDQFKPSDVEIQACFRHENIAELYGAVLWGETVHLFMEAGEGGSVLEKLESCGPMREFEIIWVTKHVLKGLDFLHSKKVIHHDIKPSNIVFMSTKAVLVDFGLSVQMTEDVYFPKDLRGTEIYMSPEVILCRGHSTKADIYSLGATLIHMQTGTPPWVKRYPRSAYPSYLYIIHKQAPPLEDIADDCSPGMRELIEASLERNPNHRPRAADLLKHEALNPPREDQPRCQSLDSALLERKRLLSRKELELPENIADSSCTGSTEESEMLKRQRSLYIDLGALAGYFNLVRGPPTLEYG
Aurora kinase B, sequence (Q96GD4 whole entry): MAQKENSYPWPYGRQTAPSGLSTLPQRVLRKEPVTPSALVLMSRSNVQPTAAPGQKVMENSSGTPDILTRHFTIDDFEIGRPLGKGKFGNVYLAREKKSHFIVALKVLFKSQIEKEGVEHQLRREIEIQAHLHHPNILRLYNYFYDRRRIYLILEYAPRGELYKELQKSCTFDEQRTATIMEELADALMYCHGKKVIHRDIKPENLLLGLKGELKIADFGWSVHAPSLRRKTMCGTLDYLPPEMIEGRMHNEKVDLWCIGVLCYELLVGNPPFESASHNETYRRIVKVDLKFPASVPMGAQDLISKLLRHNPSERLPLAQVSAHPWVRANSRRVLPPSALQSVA
Angiopoietin-1 receptor, sequence (Q02763 whole entry): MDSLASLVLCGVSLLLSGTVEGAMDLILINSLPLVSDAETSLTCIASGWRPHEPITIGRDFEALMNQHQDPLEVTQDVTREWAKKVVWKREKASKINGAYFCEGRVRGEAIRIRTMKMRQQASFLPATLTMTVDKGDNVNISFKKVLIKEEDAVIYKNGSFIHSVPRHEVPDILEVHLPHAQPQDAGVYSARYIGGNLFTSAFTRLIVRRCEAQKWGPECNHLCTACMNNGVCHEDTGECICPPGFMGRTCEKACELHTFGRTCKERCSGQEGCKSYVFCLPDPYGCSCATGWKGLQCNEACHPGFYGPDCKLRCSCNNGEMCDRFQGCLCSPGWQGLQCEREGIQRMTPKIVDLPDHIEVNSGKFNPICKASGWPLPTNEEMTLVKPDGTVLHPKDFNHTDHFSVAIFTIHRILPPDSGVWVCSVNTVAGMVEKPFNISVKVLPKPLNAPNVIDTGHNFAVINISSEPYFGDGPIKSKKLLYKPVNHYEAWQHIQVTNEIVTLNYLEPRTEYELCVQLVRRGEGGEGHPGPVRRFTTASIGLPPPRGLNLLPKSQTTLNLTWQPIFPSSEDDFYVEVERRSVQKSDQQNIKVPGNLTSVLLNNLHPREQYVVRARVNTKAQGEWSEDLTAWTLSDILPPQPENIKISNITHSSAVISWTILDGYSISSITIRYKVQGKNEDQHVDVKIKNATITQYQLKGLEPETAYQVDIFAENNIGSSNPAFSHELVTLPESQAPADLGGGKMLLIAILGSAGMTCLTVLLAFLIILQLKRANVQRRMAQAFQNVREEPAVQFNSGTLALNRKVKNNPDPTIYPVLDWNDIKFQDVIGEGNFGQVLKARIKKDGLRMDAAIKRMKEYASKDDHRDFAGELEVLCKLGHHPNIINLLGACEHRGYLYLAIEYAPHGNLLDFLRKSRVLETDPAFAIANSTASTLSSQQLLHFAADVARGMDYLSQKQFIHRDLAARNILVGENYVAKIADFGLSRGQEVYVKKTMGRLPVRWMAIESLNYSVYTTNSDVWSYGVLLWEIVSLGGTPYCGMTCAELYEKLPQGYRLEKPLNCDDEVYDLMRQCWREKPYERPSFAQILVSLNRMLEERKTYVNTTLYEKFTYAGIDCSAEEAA
Hepatocyte growth factor receptor, sequence (P08581 whole entry): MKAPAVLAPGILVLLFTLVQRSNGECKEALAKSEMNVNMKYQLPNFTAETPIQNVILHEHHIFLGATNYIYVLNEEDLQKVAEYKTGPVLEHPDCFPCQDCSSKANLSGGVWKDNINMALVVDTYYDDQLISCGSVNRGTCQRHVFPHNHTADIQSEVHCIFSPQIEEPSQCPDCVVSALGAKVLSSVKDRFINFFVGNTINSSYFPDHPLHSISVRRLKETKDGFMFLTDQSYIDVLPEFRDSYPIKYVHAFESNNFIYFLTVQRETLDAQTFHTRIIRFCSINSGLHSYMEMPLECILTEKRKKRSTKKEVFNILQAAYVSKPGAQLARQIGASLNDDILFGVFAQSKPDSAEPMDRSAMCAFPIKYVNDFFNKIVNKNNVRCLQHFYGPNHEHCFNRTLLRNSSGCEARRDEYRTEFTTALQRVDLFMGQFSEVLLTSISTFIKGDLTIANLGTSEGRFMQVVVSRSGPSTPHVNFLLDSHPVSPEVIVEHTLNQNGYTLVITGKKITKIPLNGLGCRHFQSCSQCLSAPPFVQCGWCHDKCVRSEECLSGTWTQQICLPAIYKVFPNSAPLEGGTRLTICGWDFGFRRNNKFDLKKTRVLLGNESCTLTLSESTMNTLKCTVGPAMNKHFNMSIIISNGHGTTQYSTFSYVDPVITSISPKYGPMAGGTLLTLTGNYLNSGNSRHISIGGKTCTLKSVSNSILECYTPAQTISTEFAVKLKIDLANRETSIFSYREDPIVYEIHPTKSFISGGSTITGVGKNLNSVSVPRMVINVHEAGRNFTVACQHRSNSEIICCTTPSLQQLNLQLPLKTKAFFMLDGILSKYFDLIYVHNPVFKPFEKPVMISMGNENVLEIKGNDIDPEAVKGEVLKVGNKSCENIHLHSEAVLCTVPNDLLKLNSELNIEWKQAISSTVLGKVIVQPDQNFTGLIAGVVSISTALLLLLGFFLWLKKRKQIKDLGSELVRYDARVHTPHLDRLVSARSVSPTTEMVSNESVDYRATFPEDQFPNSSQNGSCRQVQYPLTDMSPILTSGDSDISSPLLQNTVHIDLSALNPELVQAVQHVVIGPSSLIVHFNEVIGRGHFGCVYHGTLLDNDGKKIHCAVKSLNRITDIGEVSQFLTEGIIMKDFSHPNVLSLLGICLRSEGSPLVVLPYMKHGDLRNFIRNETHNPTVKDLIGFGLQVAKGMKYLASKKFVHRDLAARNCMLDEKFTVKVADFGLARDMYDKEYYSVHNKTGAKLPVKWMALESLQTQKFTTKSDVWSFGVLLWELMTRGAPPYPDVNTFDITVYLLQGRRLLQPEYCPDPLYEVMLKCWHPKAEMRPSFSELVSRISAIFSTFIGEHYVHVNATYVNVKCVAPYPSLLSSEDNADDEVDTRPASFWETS
Casein kinase II subunit alpha, sequence (P68400 whole entry): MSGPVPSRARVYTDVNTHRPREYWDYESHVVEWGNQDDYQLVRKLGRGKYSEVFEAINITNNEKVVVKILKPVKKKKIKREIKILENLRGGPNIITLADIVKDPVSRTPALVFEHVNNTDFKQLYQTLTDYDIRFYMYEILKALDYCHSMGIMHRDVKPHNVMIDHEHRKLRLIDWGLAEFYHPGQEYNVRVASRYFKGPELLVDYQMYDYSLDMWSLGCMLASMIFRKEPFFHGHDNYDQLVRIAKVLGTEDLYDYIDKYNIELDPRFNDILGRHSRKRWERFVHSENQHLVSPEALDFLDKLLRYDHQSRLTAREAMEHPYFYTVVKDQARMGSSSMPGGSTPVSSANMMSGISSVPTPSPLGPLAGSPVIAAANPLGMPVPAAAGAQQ

`COc1cc(O)c2c(c1)C(=O)c1cc(C)c(O)c(O)c1C2=O`: the IC50 was 9.99 µM at Aurora kinase A; 5.99 µM on Aurora kinase B; 12 µM in experiment [1]; 24.3 µM in experiment [2]; 9.33 µM in experiment [3]; 5.99 µM in experiment [4]. Further, the IC50 in [5] is 4 µM; in experiment [6], 8.99 µM; in experiment [7], 8.33 µM; at Insulin receptor, 13 µM; in experiment [8] it was 14.3 µM; in experiment [9], 14.7 µM. Further, the IC50 on Angiopoietin-1 receptor is 15 µM. In addition, the Activity in the experiment with L5178Y [10] worked out at 4.9%. Moreover, the response in the experiment on L5178Y [11] was half-maximal at 4.2 µg/mL (≈ 14 µM) (EC50).
`COc1cc(O)c2c(c1-c1c(OC)cc(O)c3c1C(=O)c1cc(C)c(O)cc1C3=O)C(=O)C1=C(C2=O)[C@H](O)[C@@H](O)[C@@](C)(O)[C@@H]1O` (single isomer, unassigned; atropisomer) [ALTERPORRIOL A/B]: the Activity with L5178Y [10] was 31.1%.
Take `COc1cc2c(c(O)c1-c1c(OC)cc(O)c3c1C(=O)C1=C(C3=O)[C@H](O)[C@@H](O)[C@@](C)(O)[C@@H]1O)C(=O)c1cc(O)c(C)cc1C2=O` (single isomer, unassigned; atropisomer) [ALTERPORRIOL G/H]: the IC50 was > 16.2 µM in experiment [12]; 6.14 µM in experiment [13]; 4.53 µM on Aurora kinase A; 3.88 µM at Aurora kinase B; 10.5 µM in experiment [14]; > 16.2 µM in [15]. Also, the IC50 in [1] is 7.6 µM; in experiment [2], 6.79 µM; at Ephrin type-B receptor 4, 6.79 µM; in experiment [16] it was 6.79 µM; on Focal adhesion kinase 1, 8.89 µM; in experiment [3] it was 3.07 µM. In addition, the IC50 in experiment [4] is 2.75 µM; in [5], 5.5 µM; in experiment [6], 6.47 µM; in experiment [7] it was 4.53 µM; at Insulin receptor, 5.98 µM; in experiment [8] it was 10.3 µM. Further, the IC50 was > 16.2 µM in experiment [17], > 16.2 µM in experiment [18], 2.26 µM in experiment [9] and 5.34 µM on Angiopoietin-1 receptor. The Activity in the experiment on L5178Y [10] amounted to 0.1%.
In the experiment with L5178Y [10], `COc1cc(O)c2c(c1-c1c(OC)cc(O)c3c1C(=O)C1=C(C3=O)[C@@H](O)[C@H](O)[C@](C)(O)[C@H]1O)C(=O)C1=C(C2=O)[C@H](O)[C@@H](O)[C@@](C)(O)[C@@H]1O` (stereo in doubt; 6) displayed an Activity of 92.1%. In addition, the EC50 in the experiment with L5178Y [11] was determined as 2.27 µg/mL (≈ 3.39 µM).
For the molecule `COc1cc(O)c2c(c1-c1c(OC)cc(O)c3c1C(=O)C1=C(C3=O)[C@@H](O)[C@H](O)[C@](C)(O)[C@H]1O)C(=O)C1=C(C2=O)[C@H](O)[C@@H](O)[C@@](C)(O)[C@@H]1O` (stereo in doubt; 7), the Activity with L5178Y [10] was 64.8%.
For the molecule `COc1cc(O)c2c(c1)C(=O)[C@H]1C[C@](C)(O)[C@H](O)C[C@@H]1[C@H]2O` [ALTERSOLANOL J], the Activity with L5178Y [10] amounted to 20.1%.
Molecule `COc1cc(O)c2c(c1)C(=O)[C@@H]1[C@H](C[C@@H](O)[C@@](C)(O)[C@@H]1O)[C@H]2O` [ALTERSOLANOL K] returned an Activity with L5178Y [10] of 41.4%.
Molecule `COc1cc(O)c2c(c1)[C@H](O)[C@@H]1[C@H](C[C@@H](O)[C@@](C)(O)[C@@H]1O)C2=O` [ALTERSOLANOL L] displayed an Activity with L5178Y [10] of 51.4%.
Consider `Cc1cc(O)c2c(c1)C(=O)c1cc(O)cc(O)c1C2=O` [EMODIN], for which the Activity in the experiment on L5178Y [10] is listed as 77%.
In the case of `C/C=C1\NC(=O)[C@H](Cc2ccccc2)NC(=O)[C@@H](C(C)C)NC(=O)[C@@H]([C@H](C)CC)NC(=O)[C@H](NC(=O)[C@H](NC(=O)[C@H](CCCN)NC(=O)[C@H]2CCCN2C(=O)[C@H](NC(=O)[C@@H](NC(=O)[C@@H](NC(=O)[C@H](NC(=O)CCCC(C)C)C(C)C)[C@@H](C)O)C(C)C)C(C)C)[C@H](C)CC)[C@H](C)OC(=O)[C@H](C(C)C)NC1=O` [KAHALALIDE F], the response in the experiment on L5178Y [11] was half-maximal at 6.3 µg/mL (≈ 4.26 µM) (EC50).
With `COc1cc(O)c2c(c1)C(=O)c1cc(C)c(O)cc1C2=O` [MACROSPORIN], the IC50 is 6.68 µM on Aurora kinase A; 2.29 µM on Aurora kinase B; 22.5 µM in [14]; 27.1 µM in [2]; 25.7 µM in experiment [16]; 8.44 µM in [5]. In addition, the IC50 in [7] was 2.99 µM; in experiment [8], 15.1 µM; in experiment [9], 15.1 µM; on Angiopoietin-1 receptor, 6.68 µM. Besides, the Activity in the experiment on L5178Y [10] came out at 54.5%.
